Reference: EP1712550A2, “Substituted triazole diamine derivatives as kinase inhibitors” (priority 2000, dated 2002)
Read-outs that look alike come from different tables or passages of the source.

Columns and labels:
Type in all cases: biochemical
[1] = target: T1, EGFR (epidermal growth factor receptor) (Homo sapiens, UniProt P00533); assay: Kinase Selectivity Assay EGF-R
T1 construct: is purified from human A431 cell membranes (Sigma, St. Louis, MO, Cat.# E3641); purchased Sigma, St. Louis, MO E3641; host or cells: human A431 cell membranes (endogenous protein)
T1 sequence (P00533 25-1210): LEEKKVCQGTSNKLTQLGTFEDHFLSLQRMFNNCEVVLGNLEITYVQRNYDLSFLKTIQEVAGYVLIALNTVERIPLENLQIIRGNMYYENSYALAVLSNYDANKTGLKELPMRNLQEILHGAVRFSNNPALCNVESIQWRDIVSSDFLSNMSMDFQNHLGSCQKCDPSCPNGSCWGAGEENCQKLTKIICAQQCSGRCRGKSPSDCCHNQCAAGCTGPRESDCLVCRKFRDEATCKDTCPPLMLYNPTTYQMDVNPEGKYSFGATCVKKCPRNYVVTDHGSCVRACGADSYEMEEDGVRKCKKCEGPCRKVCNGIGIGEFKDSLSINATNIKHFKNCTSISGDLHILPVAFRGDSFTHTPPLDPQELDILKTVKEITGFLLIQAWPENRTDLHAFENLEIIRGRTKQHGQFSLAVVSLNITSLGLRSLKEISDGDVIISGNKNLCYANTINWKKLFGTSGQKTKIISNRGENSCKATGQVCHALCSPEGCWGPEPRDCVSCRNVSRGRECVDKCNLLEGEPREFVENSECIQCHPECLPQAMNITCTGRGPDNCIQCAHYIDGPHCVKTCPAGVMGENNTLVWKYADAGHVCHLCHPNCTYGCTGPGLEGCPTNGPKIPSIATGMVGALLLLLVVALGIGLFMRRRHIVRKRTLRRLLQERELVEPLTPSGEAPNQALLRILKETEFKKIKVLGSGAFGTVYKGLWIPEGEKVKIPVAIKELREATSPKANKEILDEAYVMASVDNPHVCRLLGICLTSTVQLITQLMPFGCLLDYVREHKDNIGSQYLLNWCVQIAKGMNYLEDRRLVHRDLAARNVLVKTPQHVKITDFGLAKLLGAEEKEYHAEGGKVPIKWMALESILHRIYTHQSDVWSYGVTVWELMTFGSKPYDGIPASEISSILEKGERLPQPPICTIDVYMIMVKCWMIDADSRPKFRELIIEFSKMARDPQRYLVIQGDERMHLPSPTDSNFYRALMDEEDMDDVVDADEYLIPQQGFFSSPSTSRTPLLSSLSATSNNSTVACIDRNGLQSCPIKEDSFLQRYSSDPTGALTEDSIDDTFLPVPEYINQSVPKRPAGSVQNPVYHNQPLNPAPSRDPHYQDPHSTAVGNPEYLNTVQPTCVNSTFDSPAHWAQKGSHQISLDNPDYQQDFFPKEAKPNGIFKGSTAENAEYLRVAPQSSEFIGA

[2] = target: T2, VEGF-R (vascular endothelial growth factor receptor-2) (Rattus norvegicus, UniProt O08775); assay: VEGF-R Screening Assay; settings: read-out: Kinase Assay (IC50 uM) VEGF-R
T2 construct: 6xHis (polyhistidine) (N)
T2 sequence (O08775 786-1343): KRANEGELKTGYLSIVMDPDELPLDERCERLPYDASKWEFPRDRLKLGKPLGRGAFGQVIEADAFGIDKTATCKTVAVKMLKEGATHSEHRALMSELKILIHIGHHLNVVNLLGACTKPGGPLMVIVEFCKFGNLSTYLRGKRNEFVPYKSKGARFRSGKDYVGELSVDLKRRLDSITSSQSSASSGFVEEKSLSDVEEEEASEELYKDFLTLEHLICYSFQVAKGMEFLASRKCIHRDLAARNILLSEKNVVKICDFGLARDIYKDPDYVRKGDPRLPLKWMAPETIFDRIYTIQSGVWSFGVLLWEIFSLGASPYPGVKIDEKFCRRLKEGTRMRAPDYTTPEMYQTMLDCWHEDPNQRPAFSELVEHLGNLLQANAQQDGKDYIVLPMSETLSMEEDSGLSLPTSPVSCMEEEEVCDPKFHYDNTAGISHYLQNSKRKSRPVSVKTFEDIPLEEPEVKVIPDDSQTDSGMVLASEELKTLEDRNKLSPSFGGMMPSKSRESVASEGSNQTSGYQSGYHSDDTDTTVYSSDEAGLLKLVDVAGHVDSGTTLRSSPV
Protocol: (§1) 70 µL of the kinase reaction mixture was dispensed into the well of a streptavidin coated FlashPlate™ (Cat. # SMP103, NEN, Boston, MA). Then 1 µL of test compound stock in 100% DMSO was added to the wells resulting in a final concentration of 1% DMSO in the reaction with a 100 µL final reaction volume. Next, soluble rat tyrosine kinase containing an N-terminal 6XHIS tag was diluted in 50 mM Tris-HCl pH=8.0, 0.1% BSA at a concentration of 5 ng per µL and 30 µL (150 ng enzyme per test well) was added to each well to initiate the reaction. The reaction was incubated for one hour at 30°C. At the end of the 1-hour incubation, the reaction was terminated by aspirating the reaction mixture from the plate and washing the wells twice with PBS containing 100 mM EDTA. The PLC1 biotinylated peptide substrate became immobilized on the Flashplate™ and the incorporation of ^33P-γ-ATP was measured by reading the plate on a scintillation counter. Inhibition of the enzymatic activity of the VEGF-R was measured by observing a reduced amount of ^33P-γ-ATP incorporated into the immobilized peptide. […]

CDK1:Cyclin-B = target: T3, CDK1:Cyclin-B (Homo sapiens, UniProt P06493); assay: CDK1 Screening Assay; settings: read-out: Kinase Assay (IC50 uM) CDK1
T3 construct: purchased New England Biolabs, Beverly, MA 6020; host or cells: insect cells
T3 sequence (P06493 whole entry): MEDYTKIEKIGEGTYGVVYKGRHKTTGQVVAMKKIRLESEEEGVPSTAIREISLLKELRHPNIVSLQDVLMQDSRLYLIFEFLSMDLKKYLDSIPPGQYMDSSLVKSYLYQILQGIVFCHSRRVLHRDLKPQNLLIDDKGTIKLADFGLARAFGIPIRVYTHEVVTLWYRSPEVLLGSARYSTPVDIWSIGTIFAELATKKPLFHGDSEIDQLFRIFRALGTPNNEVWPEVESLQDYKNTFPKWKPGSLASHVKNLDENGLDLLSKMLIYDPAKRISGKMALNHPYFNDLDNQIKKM
T3 sequence (P14635 whole entry partner): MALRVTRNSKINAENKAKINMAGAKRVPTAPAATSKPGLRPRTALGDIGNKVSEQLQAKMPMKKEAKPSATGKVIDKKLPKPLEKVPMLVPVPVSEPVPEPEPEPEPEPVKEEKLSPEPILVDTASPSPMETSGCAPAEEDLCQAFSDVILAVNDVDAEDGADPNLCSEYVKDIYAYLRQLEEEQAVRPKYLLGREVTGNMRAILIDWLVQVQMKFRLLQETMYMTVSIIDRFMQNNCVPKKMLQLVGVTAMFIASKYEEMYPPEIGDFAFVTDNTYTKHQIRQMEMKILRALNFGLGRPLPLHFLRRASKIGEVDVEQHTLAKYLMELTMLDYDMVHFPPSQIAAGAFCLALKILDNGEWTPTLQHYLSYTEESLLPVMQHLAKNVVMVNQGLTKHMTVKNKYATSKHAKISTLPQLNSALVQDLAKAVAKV
Protocol: as §1, with “100 µl” for “100 µL”, “Next, CDK1:Cyclin-B protein” for “Next, soluble rat tyrosine kinase containing an N-terminal 6XHIS tag”, “of 1” for “of 5”, “30 µl (30ng” for “30 µL (150 ng”, “The histone-H1” for “The PLC1”, “of CDK1” for “of the VEGF-R”

[3] = target: T4, HER2 (human epidermal growth factor receptor-2) (Homo sapiens, UniProt P04626); assay: Kinase Selectivity Assay HER2
T4 construct: begins at amino acid 676 followed by the remainder of the HER2 cytoplasmic domain; polyhistidine (N)
T4 sequence (P04626 676-1255 limits assumed): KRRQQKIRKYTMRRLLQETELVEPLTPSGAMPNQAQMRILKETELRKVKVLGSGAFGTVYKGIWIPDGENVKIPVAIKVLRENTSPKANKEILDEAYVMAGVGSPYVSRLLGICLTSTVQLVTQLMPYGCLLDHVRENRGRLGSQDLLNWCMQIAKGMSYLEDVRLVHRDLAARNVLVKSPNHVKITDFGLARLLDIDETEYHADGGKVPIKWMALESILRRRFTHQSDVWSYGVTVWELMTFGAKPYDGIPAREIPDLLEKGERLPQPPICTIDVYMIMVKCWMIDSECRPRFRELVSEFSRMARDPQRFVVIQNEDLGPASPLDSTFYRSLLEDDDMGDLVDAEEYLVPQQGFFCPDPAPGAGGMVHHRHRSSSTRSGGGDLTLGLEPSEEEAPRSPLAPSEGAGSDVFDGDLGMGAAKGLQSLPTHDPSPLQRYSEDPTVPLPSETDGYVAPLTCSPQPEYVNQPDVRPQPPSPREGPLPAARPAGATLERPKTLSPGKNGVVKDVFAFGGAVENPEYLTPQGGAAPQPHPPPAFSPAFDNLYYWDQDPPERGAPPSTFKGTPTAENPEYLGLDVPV

[4] = Kinase Selectivity, Table 2, read-out: EGF-R IC50
[5] = read-out: Kinase Assay (IC50 uM) EGF-R
[6] = read-out: Kinase Assay (IC50 uM) HER2 Kinase

| SMILES | IC50 [1, 5] [µM] | IC50 [2] [µM] | other results |
| --- | --- | --- | --- |
| Nc1nc(Nc2ccc(S(N)(=O)=O)cc2)nn1C(=O)c1c(F)cccc1F [Cpd 1, 4-[[5-amino-1-(2,6-difluorobenzoyl)-1H-1,2,4-triazol-3-yl]amino]-benzenesulfonamide] |  |  | IC50 [1, 4]: > 100 µM |
| Nc1nc(Nc2ccc(S(N)(=O)=O)cc2)nn1C(=O)c1cccs1 [Cpd 14, 4-[[5-amino-1-(2-thienylcarbonyl)-1H-1,2,4-triazol-3-yl]amino]-benzenesulfonamide] |  |  | IC50 [1, 4]: 1.92 µM |
| Nc1nc(Nc2ccc(S(N)(=O)=O)cc2)nn1C(=O)c1sccc1F [Cpd 16, 4-[[5-amino-1-[(3-fluoro-2-thienyl)carbonyl]-1H-1,2,4-triazol-3-yl]amino]-benzenesulfonamide] |  |  | IC50 [1, 4]: > 100 µM |
| Nc1nc(Nc2ccc(S(N)(=O)=O)cc2)nn1C(=O)c1sccc1Cl [Cpd 17, 4-[[5-amino-1-[(3-chloro-2-thienyl)carbonyl]-1H-1,2,4-triazol-3-yl]amino]-benzenesulfonamide] |  |  | IC50 [1, 4]: 4.13 µM |
| Nc1nc(Nc2ccc(S(=O)(=O)N3CCCCC3)cc2)nn1C(=O)c1cccs1 [Cpd 23, N^3-[4-(1-piperidinylsulfonyl)phenyl]-1-(2-thienylcarbonyl)-1H-1,2,4-triazole-3,5-diamine] |  |  | IC50 [1, 4]: > 100 µM |
| Nc1nc(Nc2ccc(S(N)(=O)=O)cc2)nn1C(=O)c1ccsc1 [Cpd 30, 4-[[5-amino-1-(3-thienylcarbonyl)-1H-1,2,4-triazol-3-yl]amino]-benzenesulfonamide] |  |  | IC50 [1, 4]: 9.6 µM |
| CCc1ccc(C(=O)n2nc(Nc3ccc(S(N)(=O)=O)cc3)nc2N)s1 [Cpd 32, 4-[[5-amino-1-[(5-ethyl-2-thienyl)carbonyl]-1H 1,2,4-triazol-3-yl]amino]-benzenesulfonamide] |  |  | IC50 [1, 4]: > 100 µM |
| Cc1nc(C)c(C(=O)n2nc(Nc3ccc(S(N)(=O)=O)cc3)nc2N)s1 [Cpd 34, 4-[[5-amino-1-[(2,4-dimethyl-5-thiazolyl)carbonyl]-1H-1,2,4-triazol-3-yl]amino]-benzenesulfonamide] | > 100 | 0.068 |  |
| Nc1nc(Nc2ccc(S(N)(=O)=O)cc2)nn1C(=O)C1CCCC1 [Cpd 38, 4-[[5-amino-1-(cyclopentylcarbonyl)-1H-1,2,4-triazol-3-yl]amino]-benzenesulfonamide] | > 100 | 0.88 | IC50 (CDK1:Cyclin-B): 0.029 µM |
| Nc1nc(Nc2ccc(S(N)(=O)=O)cc2)nn1C(=O)C1CCCCC1 [Cpd 39, 4-[[5-amino-1-(cyclohexylcarbonyl)-1H-1,2,4-triazol-3-yl]amino]-benzenesulfonamide] | > 100 | 0.334 | IC50 (CDK1:Cyclin-B): 0.012 µM |
| CC(C)(C)c1ccc(C(=O)n2nc(Nc3ccc(S(N)(=O)=O)cc3)nc2N)s1 [Cpd 51, 4-[[5-amino-1-[[5-(1,1-dimethylethyl)-2-thienyl]carbonyl]-1H-1,2,4-triazol-3-yl]amino]-benzenesulfonamide] | 1.1 |  |  |
| Nc1ccc(F)c(C(=O)n2nc(Nc3ccc(S(N)(=O)=O)cc3)nc2N)c1F [Cpd 55, 4-[[5-amino-1-(3-amino-2,6-difluorobenzoyl)-1H-1,2,4-triazol-3-yl]amino]-benzenesulfonamide] | 16.1 | 0.577 |  |
| Cc1ccccc1C(=O)n1nc(Nc2ccc(S(N)(=O)=O)cc2)nc1N [Cpd 57, 4-[[5-amino-1-(2-methylbenzoyl)-1H-1,2,4-triazol-3-yl]amino]-benzenesulfonamide] | > 100 | 0.191 |  |
| CC(O)c1ccc(F)c(C(=O)n2nc(Nc3ccc(S(N)(=O)=O)cc3)nc2N)c1F (stereo not shown) [Cpd 58, 4-[[5-amino-1-[2,6-difluoro-3-(1-hydroxyethyl)benzoyl]-1H-1,2,4-triazol-3-yl]amino]-benzenesulfonamide] | > 10 |  |  |
| Nc1nc(Nc2ccc(S(N)(=O)=O)cc2)nn1C(=O)c1c(F)cccc1Cl [Cpd 70, 4-[[5-amino-1-(2-chloro-6-fluorobenzoyl)-1H-1,2,4-triazol-3-yl]amino]-benzenesulfonamide] | > 100 | 0.911 |  |
| CN1CCN(c2ccc(Nc3nc(N)n(C(=O)c4c(F)cccc4F)n3)cc2)CC1 [Cpd 71, 1-(2,6-difluorobenzoyl)-N^3-[4-(4-methyl-1-piperazinyl)phenyl]-1H-1,2,4-triazole-3,5-diamine] | > 10 |  |  |
| CNS(=O)(=O)c1ccc(Nc2nc(N)n(C(=O)c3sccc3C)n2)cc1 [Cpd 82, 4-[[5-amino-1-[(3-methyl-2-thienyl)carbonyl]-1H-1,2,4-triazol-3-yl]amino]-N-methyl-benzenesulfonamide] | > 100 | 0.022 | IC50 [3, 6]: 0.118 µM |
| CNS(=O)(=O)c1ccc(Nc2nc(N)n(C(=O)c3sc(C)cc3C)n2)cc1 [Cpd 83, 4-[[5-amino-1-[(3,5-dimethyl-2-thienyl)carbonyl]-1H-1,2,4-triazol-3-yl]amino]-N-methyl-benzenesulfonamide] | > 100 | 0.04 | IC50 (CDK1:Cyclin-B): 0.008 µM |
| CCc1ccc(C(=O)n2nc(Nc3ccc(S(=O)(=O)NC)cc3)nc2N)s1 [Cpd 84, 4-[[5-amino-1-[(5-ethyl-2-thienyl)carbonyl]-1H-1,2,4-triazol-3-yl]amino]-N-methyl-benzenesulfonamide] | > 10 | 0.043 | IC50 [3, 6]: 0.052 µM |
| Cc1cc(C)c(C(=O)n2nc(Nc3ccc(-n4ccnc4)cc3)nc2N)s1 [Cpd 92, 1-[(3,5-diinethyl-2-thienyl)carbonyl]-N^3-[4-(1H-imidazol-1-yl)phenyl]-1H-1,2,4-triazole-3,5-diamine] | > 100 |  |  |
| CCc1ccc(C(=O)n2nc(Nc3ccc(S(=O)(=O)NCCN(C)C)cc3)nc2N)s1 [Cpd 103, 4-[[5-amino-1-[(5-ethyl-2-thienyl)carbonyl]-1H-1,2,4-triazol-3-yl]amino]-N-[2-(dimethylamino)ethyl]-benzenesulfonamide] | > 10 |  |  |
| Cc1ccsc1C(=O)n1nc(Nc2ccc(S(=O)(=O)NCCN(C)C)cc2)nc1N [Cpd 104, 4-[[5-amino-1-[(3-methyl-2-thienyl)carbonyl]-1H-1,2,4-triazol-3-yl]amino]-N-[2-(dimethylamino)ethyl]-benzenesulfonamide] | > 10 | 0.016 | IC50 [3, 6]: 0.202 µM |
| CCc1ccc(C(=O)n2nc(Nc3ccc(NS(C)(=O)=O)cc3)nc2N)s1 [Cpd 110, N-[4-[[5-amino-1-[(5-ethyl-2-thienyl)carbonyl]-1H-1,2,4-triazol-3-yl]amino]phenyl]-methanesulfonamide] | > 10 | 0.014 | IC50 (CDK1:Cyclin-B): 0.022 µM |
| Cc1ccsc1C(=O)n1nc(Nc2ccc(N3CCNC3=O)cc2)nc1N [Cpd 113, 1-[4-[[5-amino-1-[(3-methyl-2-thienyl)carbonyl]-1H-1,2,4-triazol-3-yl]amino]phenyl]-2-imidazolidinone] | > 10 |  |  |
| Cc1ccsc1C(=O)n1nc(Nc2ccc(N3CCCS3(=O)=O)cc2)nc1N [Cpd 116, N^3-[4-(1,1-dioxido-2-isothiazolidinyl)phenyl]-1-[(3-methyl-2-thienyl)carbonyl]-1H-1,2,4-triazole-3,5-diamine] | > 100 |  |  |
| Nc1nc(Nc2ccc(S(=O)(=O)Nc3ccccn3)cc2)nn1C(=O)c1c(F)cccc1F [Cpd 118, 4-[[5-amino-1-(2,6-difluorobenzoyl)-1H-1,2,4-triazol-3-yl]amino]-N-(2-pyridinyl)-benzenesulfonamide] | > 100 |  |  |
| Cc1cc(C)c(C(=O)n2nc(Nc3ccc(S(=O)(=O)Nc4ccccn4)cc3)nc2N)s1 [Cpd 120, 4-[[5-amino-1-[(3,5-dimethyl-2-thienyl)carbonyl]-1H-1,2,4-triazol-3-yl]amino]-N-(2-pyridinyl)-benzenesulfonamide] | > 10 |  | IC50 ([3]; Table 1, read-out: HER2 IC50): 1 µM; IC50 [3, 6]: 1 µM |
| Cc1ccc(F)c(C(=O)n2nc(N)nc2Nc2ccc(S(N)(=O)=O)cc2)c1F [Cpd 123, 4-[[3-amino-1-(2,6-difluoro-3-methylbenzoyl)-1H-1,2,4-triazol-5-yl]amino]-benzenesulfonamide] | > 100 | 5.52 |  |
